Measurements as given in patent US20240408169A1 (priority 2023, published 2024).
Where two headings read alike, the source gives them in different places. *1 amine or outer side, *2 acyl side, *3 side chain or, on linkers, in order; H or OH if unused. Where a SMILES comes first, the peptide text is derived from it. Bridges are numbered along the chain shown (N, C = ends). [ ]: non-standard residue; d: D form. The star is where a group is joined. X184 = CC(=O)N1CCC(c2ccc(F)cc2C[C@@H](C(=O)[*:2])N(C)[*:1])CC1; X68 = CN([C@@H](Cc1cc(Cl)ccc1-c1cnn(C2CC2)c1)C(=O)[*:2])[*:1]; NMehhhLys(Me) = CN([C@@H](CCCCCCCN(C)[*:3])C(=O)[*:2])[*:1]; X112 = CN([C@@H](Cc1cc(F)ccc1-c1cnn(C)c1)C(=O)[*:2])[*:1]; X22 = CN([C@@H](Cc1cc(Cl)ccc1-c1cnn(C)c1)C(=O)[*:2])[*:1]; NMe(hhhLys) = CN([C@@H](CCCCCCCN[*:3])C(=O)[*:2])[*:1]; X210 = CC(C)=Cc1ccc(Cl)cc1C[C@@H](C(=O)[*:2])N(C)[*:1]; X164 = C=C(C)c1ccc(Cl)cc1C[C@@H](C(=O)[*:2])N(C)[*:1]; Cyclobutanecarbonyl(1-CF3) = O=C(C1(C(F)(F)F)CCC1)*; cBuCO(3,3-F2-1-CF3) = O=C(C1(C(F)(F)F)CC(F)(F)C1)*; NMePhe(2,5-Cl2) = CN[C@@H](Cc1cc(Cl)ccc1Cl)C(=O)O; Pro(trans-4-F) = O=C(O)[C@@H]1C[C@@H](F)CN1; Gly(cPr) = N[C@H](C(=O)O)C1CC1

Tests used:
CyclinA2/CDK2 = biological target: T1, CyclinA2/CDK2 (Homo sapiens, UniProt P20248); experiment: Fluorescence Polarization (FP) competitive binding assay, Cyclin A2/Cdk2;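 further: plates equilibrated two hours at room temperature before polarization reading, IC50 fitted from eight-concentration compound titration curves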
T1 construct: purchased CRELUX Protein Services

CyclinB1/CDK1 = biological target: T2, CyclinB1/CDK1 (Homo sapiens, UniProt P14635); experiment: Fluorescence Polarization (FP) competitive binding assay, Cyclin B1/Cdk1;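 further: fluorescence polarization read after equilibration at room temperature, with IC50 taken from serially diluted dose-response curves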
T2 construct: purchased Eurofins, discovery 14-450

CyclinE1/CDK2 = biological target: T3, CyclinE1/CDK2 (Homo sapiens, UniProt P24864); experiment: Fluorescence Polarization (FP) competitive binding assay, Cyclin E1/Cdk2;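 further: readings taken after two-hour equilibration at room temperature in HEPES buffer with NaCl, DTT, NP-40 and BSA, IC50 fitted from eight-concentration serial dilution series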
T3 construct: purchased Eurofins, discovery 14-475

NCI-H1048 cells = experiment: MTT proliferation assay, NCI-H1048; format: cell-based; details: 5 days compound exposure, 1:3 serial dilution starting at 10 μM;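 further: Dose-response in 96-well plates over 8 or 10 concentration points, with exposure spanning 3-4 cell doublings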
OVCAR3 cells = experiment: MTT proliferation assay, OVCAR3; format: cell-based; details: 5 days compound exposure, 1:3 serial dilution starting at 10 μM;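 further: compound given as an 8- or 10-point series, one day after plating, with exposure covering roughly 3-4 cell doublings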
[1] = 8 nM Cyclin A2/Cdk2, 2 nM FAM probe; average of 2-3 independent experiments; read-out: Cyclin A FP IC50
[2] = 10 nM Cyclin B1/Cdk1, 2 nM FAM probe; average of 2-3 independent experiments; read-out: Cyclin B FP IC50
[3] = 10 nM Cyclin E1/Cdk2, 2 nM FAM probe, average of 2-3 independent experiments, read-out: Cyclin E FP IC50

Row | SMILES | IC50 (CyclinA2/CDK2; [1]) [nM] | IC50 (CyclinB1/CDK1; [2]) [nM] | IC50 (CyclinE1/CDK2; [3]) [nM] | GI50 (NCI-H1048 cells) [nM] | GI50 (OVCAR3 cells) [nM] | IC50 (CyclinA2/CDK2; read-out: Cyclin A FP IC50; 8 nM Cyclin A2/Cdk2, 2 nM FAM probe; average of 2-3 independent experiments) [nM] | IC50 (CyclinB1/CDK1; read-out: Cyclin B FP IC50; 10 nM Cyclin B1/Cdk1, 2 nM FAM probe; average of 2-3 independent experiments) [nM] | IC50 (CyclinE1/CDK2) [nM]
1 | CC(=O)N1CCC(c2ccc(F)cc2C[C@H]2C(=O)N(C)CCCCCCC[C@H](N(C)C(=O)[C@@H](NC(=O)[C@@H]3C[C@@H](F)CN3C(=O)C3(C(F)(F)F)CC(F)(F)C3)C3CC3)C(=O)N[C@@H](CC(C)C)C(=O)N2C)CC1 [Example 45, (2S,4R)—N—((S)-2-(((3S,6S,9S)-3-(2-(1-acetylpiperidin-4-yl)-5-fluorobenzyl)-6-isobutyl-1,4-dimethyl-2,5,8-trioxo-1,4,7-triazacyclohexadecan-9-yl)(methyl)amino)-1-cyclopropyl-2-oxoethyl)-1-(3,3-difluoro-1-(trifluoromethyl)cyclobutane-1-carbonyl)-4-fluoropyrrolidine-2-carboxamide] ({cBuCO(3,3-F2-1-CF3)}-[Pro(trans-4-F)][Gly(cPr)][NMehhhLys(Me)]L[X184]; lactam 3-C) | 100 | 20 | 330 | 20 | 40 |  |  | 
2 | CC(C)C[C@@H]1NC(=O)[C@@H](N(C)C(=O)[C@@H](NC(=O)[C@@H]2C[C@@H](F)CN2C(=O)C2(C(F)(F)F)CC(F)(F)C2)C2CC2)CC=CCCCCN(C)C(=O)[C@H](Cc2cc(F)ccc2C2=CCCC2)N(C)C1=O [Example 46] | 20 | 20 | 350 | 720 | 790 |  |  | 
3 | CC(C)C[C@@H]1NC(=O)[C@@H](N(C)C(=O)[C@H](C)NC(=O)[C@@H]2C[C@@H](F)CN2C(=O)C2(C(F)(F)F)CC(F)(F)C2)CC=CCCCCNC(=O)[C@H](Cc2cc(Cl)ccc2Cl)N(C)C1=O [Example 54] | 390 | 30 | 3390 | 470 | 700 |  |  | 
4 | CC(C)C[C@@H]1NC(=O)[C@@H](N(C)C(=O)[C@H](C)NC(=O)[C@@H]2C[C@@H](F)CN2C(=O)C2(C(F)(F)F)CC(F)(F)C2)CCCCCCCNC(=O)[C@H](Cc2cc(Cl)ccc2Cl)N(C)C1=O [Example 55] ({cBuCO(3,3-F2-1-CF3)}-[Pro(trans-4-F)]A[NMe(hhhLys)]L[NMePhe(2,5-Cl2)]; lactam 3-C) | 700 | 80 | 3930 | 560 | 710 |  |  | 
5 | CC(=O)N1[C@H]2CC[C@@H]1C=C(c1ccc(F)cc1C[C@H]1C(=O)N(C)CCCCCCC[C@H](N(C)C(=O)[C@@H](NC(=O)[C@@H]3C[C@@H](F)CN3C(=O)C3(C(F)(F)F)CC(F)(F)C3)C3CC3)C(=O)N[C@@H](CC(C)C)C(=O)N1C)C2 [Example 58] |  |  |  | 10 | 10 | 20 | 20 | 620
6 | C=C(C)c1ccc(Cl)cc1C[C@H]1C(=O)NCCCCCCC[C@H](N(C)C(=O)[C@@H](NC(=O)[C@@H]2C[C@@H](F)CN2C(=O)C2(C(F)(F)F)CC(F)(F)C2)C2CC2)C(=O)N[C@@H](CC(C)C)C(=O)N1C [Example 61] ({cBuCO(3,3-F2-1-CF3)}-[Pro(trans-4-F)][Gly(cPr)][NMe(hhhLys)]L[X164]; lactam 3-C) | 20 | 20 | 1010 | 20 | 40 |  |  | 
7 | CC(C)=Cc1ccc(Cl)cc1C[C@H]1C(=O)NCCCCCCC[C@H](N(C)C(=O)[C@@H](NC(=O)[C@@H]2C[C@@H](F)CN2C(=O)C2(C(F)(F)F)CC(F)(F)C2)C2CC2)C(=O)N[C@@H](CC(C)C)C(=O)N1C [Example 62] ({cBuCO(3,3-F2-1-CF3)}-[Pro(trans-4-F)][Gly(cPr)][NMe(hhhLys)]L[X210]; lactam 3-C) | 30 | 20 | 390 | 60 | 70 |  |  | 
8 | CC(C)C[C@@H]1NC(=O)[C@@H](N(C)C(=O)[C@@H](NC(=O)[C@@H]2C[C@@H](F)CN2C(=O)C2(C(F)(F)F)CC(F)(F)C2)C2CC2)CCCCCCCN(C)C(=O)[C@H](Cc2cc(F)ccc2-c2cnn(C)c2)N(C)C1=O [Example 65] ({cBuCO(3,3-F2-1-CF3)}-[Pro(trans-4-F)][Gly(cPr)][NMehhhLys(Me)]L[X112]; lactam 3-C) | 20 | 20 | 270 | 10 | 10 |  |  | 
9 | CC(C)C[C@@H]1NC(=O)[C@@H](N(C)C(=O)[C@@H](NC(=O)[C@@H]2C[C@@H](F)CN2C(=O)C2(C(F)(F)F)CC(F)(F)C2)C2CC2)CCCCCCCNC(=O)[C@H](Cc2cc(Cl)ccc2-c2cnn(C3CC3)c2)N(C)C1=O [Example 67] ({cBuCO(3,3-F2-1-CF3)}-[Pro(trans-4-F)][Gly(cPr)][NMe(hhhLys)]L[X68]; lactam 3-C) | 20 | 20 | 500 | 10 | 10 |  |  | 
10 | CC(=O)N1CC=C(c2ccc(Cl)cc2C[C@H]2C(=O)N(C)CCCCCC[C@H](N(C)C(=O)[C@@H](NC(=O)[C@@H]3C[C@@H](F)CN3C(=O)C3(C(F)(F)F)CC(F)(F)C3)C3CC3)C(=O)N[C@@H](CC(C)C)C(=O)N2C)CC1 [Example 74] | 50 | 20 | 3620 | 110 | 170 |  |  | 
11 | CC(C)C[C@@H]1NC(=O)[C@@H](N(C)C(=O)[C@@H](NC(=O)[C@@H]2CCCN2C(=O)C2(C(F)(F)F)CCC2)C2CC2)CCCCCCCN(C)C(=O)[C@H](Cc2cc(Cl)ccc2-c2cnn(C)c2)N(C)C1=O [Example 76] ({Cyclobutanecarbonyl(1-CF3)}-P[Gly(cPr)][NMehhhLys(Me)]L[X22]; lactam 3-C) | 20 | 20 | 880 | 80 | 120 |  |  | 
12 | CC(C)C[C@@H]1NC(=O)[C@@H](N(C)C(=O)[C@@H](NC(=O)[C@@H]2CCCN2C(=O)C2(C(F)(F)F)CC(F)(F)C2)C2CC2)CCCCCCCN(C)C(=O)[C@H](Cc2cc(Cl)ccc2-c2cnn(C)c2)N(C)C1=O [Example 77] ({cBuCO(3,3-F2-1-CF3)}-P[Gly(cPr)][NMehhhLys(Me)]L[X22]; lactam 3-C) | 20 | 20 | 1710 | 60 | 70 |  |  | 
13 | COCn1cc(-c2ccc(Cl)cc2C[C@H]2C(=O)N(C)CCCCC=CC[C@H](N(C)C(=O)[C@@H](NC(=O)[C@@H]3C[C@@H](F)CN3C(=O)C3(C(F)(F)F)CC(F)(F)C3)C3CC3)C(=O)N[C@@H](CC(C)C)C(=O)N2C)cn1 [Example 79] | 50 | 20 | 630 | 30 | 40 |  |  | 
14 | CC(C)C[C@H]1NC(=O)[C@H](N(C)C(=O)[C@H](NC(=O)[C@H]2C[C@H](F)CN2C(=O)C2(C#N)CCC2)C2CC2)CCCCCCCN(C)C(=O)[C@@H](Cc2cc(Cl)ccc2-c2cnn(C)c2)N(C)C1=O [Example 82] | 20 | 20 | 220 | 30 | 70 |  |  | 
15 | CC(C)C[C@@H]1NC(=O)[C@@H](N(C)C(=O)[C@@H](NC(=O)[C@@H]2C[C@@H](F)CN2C(=O)C2(C(F)(F)F)CCC2)C2CC2)CC=CCCCCN(C)C(=O)[C@H](Cc2cc(F)ccc2-c2cnn(CC(F)F)c2)N(C)C1=O [Example 83] | 40 | 20 | 100 | 20 | 10 |  |  | 
16 | CC(C)C[C@@H]1NC(=O)[C@@H](N(C)C(=O)[C@@H](NC(=O)[C@@H]2C[C@@H](F)CN2C(=O)C2(C(F)(F)F)CC(F)(F)C2)C2CC2)CC=CCCCCN(C)C(=O)[C@H](Cc2cc(F)ccc2-c2cnn(C3CCOCC3)c2)N(C)C1=O [Example 84] | 50 | 20 | 290 | 20 | 10 |  |  | 
17 | CC(C)C[C@@H]1NC(=O)[C@@H](N(C)C(=O)[C@@H](NC(=O)[C@@H]2C[C@@H](F)CN2C(=O)C2(C(F)(F)F)CC(F)(F)C2)C2CC2)CC=CCCCCN(C)C(=O)[C@H](Cc2cc(F)ccc2-c2cnn(C3CCOC3)c2)N(C)C1=O (stereo partly drawn) [Example 85] | 60 | 20 | 280 | 20 | 20 |  |  | 
18 | CC(C)C[C@@H]1NC(=O)[C@@H](N(C)C(=O)[C@@H](NC(=O)[C@@H]2C[C@@H](F)CN2C(=O)C2(C(F)(F)F)CC(F)(F)C2)C2CC2)CC=CCCCCN(C)C(=O)[C@H](Cc2cc(F)ccc2-c2cnn(C3CC3)c2)N(C)C1=O [Example 86] | 60 | 20 | 250 | 20 | 20 |  |  | 
